According to US11098032B2, “Pyran dervatives as CYP11A1 (cytochrome P450 monooxygenase 11A1) inhibitors” (ORION CORPORATION, priority 2016, dated 2021):

What follows are compounds tested against T1, CYP11A1 (Homo sapiens, UniProt P05108) (assay: CYP11A1 inhibition: modified isocaproic acid release assay (IARA) in H295R cells). Settings: human H295R adrenocortical carcinoma cells treated three days, 3 nM [24,25-3H]-labelled cholesterol, 1% DMSO, 10 concentrations in duplicates; read-out: IC50 of the test compounds on CYP11A1 inhibition.
T1 construct: human H295R adrenocortical carcinoma cell line was used as source of enzyme; endogenous in cells; host or cells: H295R human adrenocortical carcinoma cells
T1 sequence (P05108 40-521): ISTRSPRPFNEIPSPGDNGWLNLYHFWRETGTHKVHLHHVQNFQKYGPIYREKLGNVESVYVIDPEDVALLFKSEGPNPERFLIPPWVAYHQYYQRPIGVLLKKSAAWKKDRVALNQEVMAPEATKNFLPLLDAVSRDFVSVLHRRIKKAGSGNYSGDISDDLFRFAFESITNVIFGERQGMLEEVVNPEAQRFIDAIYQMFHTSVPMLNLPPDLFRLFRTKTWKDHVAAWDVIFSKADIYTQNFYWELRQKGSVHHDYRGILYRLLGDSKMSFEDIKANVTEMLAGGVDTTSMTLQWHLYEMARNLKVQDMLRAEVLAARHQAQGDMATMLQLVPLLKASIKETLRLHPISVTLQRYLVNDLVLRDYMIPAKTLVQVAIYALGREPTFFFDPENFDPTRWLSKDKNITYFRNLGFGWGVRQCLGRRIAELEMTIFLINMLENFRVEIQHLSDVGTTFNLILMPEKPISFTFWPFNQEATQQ
Format: cell-based
Procedure: The ability of the test compounds to inhibit conversion of cholesterole to pregnenolone and isocaproic acid was measured by modification of isocaproic acid release assay (IARA) described by Ruangwises et. al. (Biology of Reproduction 1991; 45(1):143-50) except that human H295R adrenocortical carcinoma cell line was used as source of enzyme and extraction was done with dextran-coated charcoal suspension (Isomaa, V. et al., Endocrinology 1982; 111(3):833-843). […] To determine the half maximal inhibitory concentration (IC50) of the test compounds on CYP11A1 inhibition, the cells were treated for three days with increasing concentrations of the test compounds in the presence of 3 nM [24,25-3H]-labelled cholesterol (American Radiolabelled Chemicals). The final DMSO concentration was 1%. Cell culture medium was extracted with dextran-coated charcoal suspension and the radiolabelled isocaproic acid was determined by mixing 100 μl of supernatant fraction in 200 μl of scintillation fluid (OptiPhase SuperMix, Perkin Elmer). Radioactivity was measured using a Microbeta scintillation counter (1450 MicroBeta Trilux, Wallac). All the test compounds were studied at 10 concentrations in duplicates.

IC50 [nM]	Compound
150 to 300	CC(C)S(=O)(=O)c1ccc(COc2coc(CN3Cc4ccccc4C3)cc2=O)cc1 [Compound 25, 2-(Isoindolin-2-ylmethyl)-5-((4-(isopropylsulfonyl)benzyl)oxy)-4H-pyran-4-one]
150 to 300	CS(=O)(=O)c1ccc(COc2coc(CN3Cc4cc(F)c(F)cc4C3)cc2=O)cc1 [Compound 26, 2-((5,6-Difluoroisoindolin-2-yl)methyl)-5-((4-(methylsulfonyl)benzyl)oxy)-4H-pyran-4-one]
301 to 2000	CS(=O)(=O)c1ccc(COc2coc(CN3Cc4cccc(F)c4C3)cc2=O)cc1 [Compound 27, 2-((4-Fluoroisoindolin-2-yl)methyl)-5-((4-(methylsulfonyl)benzyl)oxy)-4H-pyran-4-one]
150 to 300	COCCS(=O)(=O)c1ccc(COc2coc(CN3Cc4ccccc4C3)cc2=O)cc1 [Compound 28, 2-(Isoindolin-2-ylmethyl)-5-((4-((2-methoxyethyl)sulfonyl)benzyl)oxy)-4H-pyran-4-one]
150 to 300	COCCS(=O)(=O)c1ccc(COc2coc(CN3Cc4ccc(F)cc4C3)cc2=O)cc1 [Compound 29, 2-((5-Fluoroisoindolin-2-yl)methyl)-5-((4-((2-methoxyethyl)sulfonyl)benzyl)oxy)-4H-pyran-4-one]
150 to 300	O=c1cc(CN2Cc3ccccc3C2)occ1OCC1CN(S(=O)(=O)c2csc(Cl)c2)C1 [Compound 30, 5-((1-((5-Chlorothiophen-3-yl)sulfonyl)azetidin-3-yl)methoxy)-2-(isoindolin-2-ylmethyl)-4H-pyran-4-one]
150 to 300	CC(=O)c1ccc(COc2coc(CN3Cc4ccccc4C3)cc2=O)cc1 [Compound 31, 5-((4-Acetylbenzyl)oxy)-2-(isoindolin-2-ylmethyl)-4H-pyran-4-one]
301 to 2000	CN(C)C(=O)c1ccc(COc2coc(CN3Cc4cccc(F)c4C3)cc2=O)cc1 [Compound 32, 4-(((6-((4-Fluoroisoindolin-2-yl)methyl)-4-oxo-4H-pyran-3-yl)oxy)methyl)-N,N-dimethylbenzamide]
301 to 2000	CC(C)(O)c1ccc(COc2coc(CN3Cc4cccc(F)c4C3)cc2=O)cc1 [Compound 33, 2-((4-Fluoroisoindolin-2-yl)methyl)-5-((4-(2-hydroxypropan-2-yl)benzyl)oxy)-4H-pyran-4-one]
150 to 300	CS(=O)(=O)c1ccc(COc2coc(CN3Cc4ccccc4C3)cc2=O)c(F)c1 [Compound 34, 5-((2-Fluoro-4-(methylsulfonyl)benzyl)oxy)-2-(isoindolin-2-ylmethyl)-4H-pyran-4-one]
301 to 2000	O=c1cc(CN2Cc3ccccc3C2)occ1OCC1CCS(=O)(=O)CC1 [Compound 35, 5-((1,1-Dioxidotetrahydro-2H-thiopyran-4-yl)methoxy)-2-(isoindolin-2-yl-methyl)-4H-pyran-4-one]
< 150	O=c1cc(CN2Cc3ccccc3C2)occ1OCC1CCN(S(=O)(=O)C2COC2)CC1 [Compound 36, 2-(Isoindolin-2-ylmethyl)-5-((1-(oxetan-3-ylsulfonyl)piperidin-4-yl)methoxy)-4H-pyran-4-one]
< 150	CS(=O)(=O)c1ccc(COc2coc(CN3Cc4ccc(OC(F)(F)F)cc4C3)cc2=O)cc1 [Compound 37, 5-((4-(Methylsulfonyl)benzyl)oxy)-2-((5-(trifluoromethoxy)isoindolin-2-yl)-methyl)-4H-pyran-4-one]
301 to 2000	O=c1cc(CN2Cc3ccccc3C2)occ1OCc1ccc([N+](=O)[O-])cc1 [Compound 38, 2-(Isoindolin-2-ylmethyl)-5-((4-nitrobenzyl)oxy)-4H-pyran-4-one]
150 to 300	O=c1cc(CN2Cc3ccccc3C2)occ1OCc1ccc(-n2cc(Br)cn2)cc1 [Compound 39, 5-((4-(4-Bromo-1H-pyrazol-1-yl)benzyl)oxy)-2-(isoindolin-2-ylmethyl)-4H-pyran-4-one]
301 to 2000	CCOC(=O)c1cnn(-c2ccc(COc3coc(CN4Cc5ccccc5C4)cc3=O)cc2)c1 [Compound 40, Ethyl 1-(4-(((6-(isoindolin-2-ylmethyl)-4-oxo-4H-pyran-3-yl)oxy)methyl)phenyl)-1H-pyrazole-4-carboxylate]
301 to 2000	N#Cc1ccc(COc2coc(CN3CCc4ccccc4C3)cc2=O)cc1 [Compound 41, 4-(((6-((3,4-Dihydroisoquinolin-2(1H)-yl)methyl)-4-oxo-4H-pyran-3-yl)oxy)-methyl)benzonitrile]
301 to 2000	Cc1ccc(COc2coc(CN3CCc4ccccc4C3)cc2=O)cc1 [Compound 42, 2-((3,4-Dihydroisoquinolin-2(1H)-yl)methyl)-5-((4-methylbenzyl)oxy)-4H-pyran-4-one]
301 to 2000	NC(=O)c1ccc(COc2coc(CN3CCc4ccccc4C3)cc2=O)cc1 [Compound 43, 4-(((6-((3,4-Dihydroisoquinolin-2(1H)-yl)methyl)-4-oxo-4H-pyran-3-yl)oxy)-methyl)benzamide]
< 150	CC(C)(O)c1ccc(COc2coc(CN3CCc4ccccc4C3)cc2=O)cc1 [Compound 44, 2-((3,4-dihydroisoquinolin-2(1H)-yl)methyl)-5-((4-(2-hydroxypropan-2-yl)-benzyl)oxy)-4H-pyran-4-one]
301 to 2000	N#Cc1ccc(COc2coc(CN3Cc4ccccc4C3)cc2=O)cc1 [Compound 45, 4-(((6-(Isoindolin-2-ylmethyl)-4-oxo-4H-pyran-3-yl)oxy)methyl)benzonitrile]
150 to 300	CC(C)(O)Cc1ccc(COc2coc(CN3CCc4ccccc4C3)cc2=O)cc1 [Compound 46, 2-((3,4-Dihydroisoquinolin-2(1H)-yl)methyl)-5-((4-(2-hydroxy-2-methyl-propyl)benzyl)oxy)-4H-pyran-4-one]
< 150	C=C(C)c1ccc(COc2coc(CN3Cc4ccccc4C3)cc2=O)cc1 [Compound 47]
301 to 2000	CNC(=O)c1ccc(COc2coc(CN3CCc4ccccc4C3)cc2=O)cc1 [Compound 48, 4-(((6-((3,4-Dihydroisoquinolin-2(1H)-yl)methyl)-4-oxo-4H-pyran-3-yl)oxy)-methyl)-N-methylbenzamide]
< 150	CC(C)(O)c1ccc(COc2coc(CN3Cc4ccccc4C3)cc2=O)cc1 [Compound 49, 5-((4-(2-Hydroxypropan-2-yl)benzyl)oxy)-2-(isoindolin-2-ylmethyl)-4H-pyran-4-one]
301 to 2000	N#Cc1cccc(COc2coc(CN3CCc4ccccc4C3)cc2=O)c1 [Compound 50, 3-(((6-((3,4-Dihydroisoquinolin-2(1H)-yl)methyl)-4-oxo-4H-pyran-3-yl)oxy)-methyl)benzonitrile]
301 to 2000	N#Cc1ccc(COc2coc(CN3CCc4ccccc4C3)cc2=O)c(F)c1 [Compound 51, 4-(((6-((3,4-Dihydroisoquinolin-2(1H)-yl)methyl)-4-oxo-4H-pyran-3-yl)oxy)-methyl)-3-fluorobenzonitrile]
301 to 2000	COc1ccc2c(c1)CCN(Cc1cc(=O)c(OCc3ccc(C(C)(C)O)cc3)co1)C2 [Compound 52, 5-((4-(2-Hydroxypropan-2-yl)benzyl)oxy)-2-((6-methoxy-3,4-dihydroisoquinolin-2(1H)-yl)methyl)-4H-pyran-4-one]
150 to 300	COc1ccc2c(c1)CCN(Cc1cc(=O)c(OCc3ccc(C#N)cc3)co1)C2 [Compound 53, 4-(((6-((6-Methoxy-3,4-dihydroisoquinolin-2(1H)-yl)methyl)-4-oxo-4H-pyran-3-yl)oxy)methyl)benzonitrile]
